Source: the supplement of paper PMC10307832

Tests used:
Assay in all cases: relative viability (nuclei count vs DMSO), 5 days (fraction); higher = more cells survive
[1] = tested on: NCI-H2087
Outline: (§1)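 Relative viability divides the nuclei count in treated wells by that in vehicle wells. Lung cancer cell lines were seeded in 1536-well plates, dosed by pin tool the next day, and fixed and stained after 5 days in one step with final 0.05% Triton X-100, 1% formaldehyde and 1 ug/ml Hoechst. Dosing was a single drug or a fixed anchor-drug dose plus five library-drug doses (not always all listed) in √10 steps, and values are medians of duplicate plates imaged at 4×.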

[2] = tested on: PC-3 [JPC-3]
Outline: as §1

[3] = tested on: H3255
Outline: as §1

[4] = tested on: NCI-H650
Outline: as §1

[5] = tested on: NCI-H647
Outline: as §1

[6] = tested on: NCI-H1666
Outline: as §1

[7] = tested on: NCI-H2085
Outline: as §1

[8] = tested on: COR-L 105
Outline: as §1

[9] = tested on: LOU-NH91
Outline: as §1

[10] = tested on: LCLC-97TM1
Outline: as §1

[11] = tested on: LU99A
Outline: as §1

[12] = tested on: SW 1573
Outline: as §1

[13] = tested on: 201T
Outline: as §1

[14] = tested on: EPLC-272H
Outline: as §1

[15] = tested on: EKVX
Outline: as §1

[16] = tested on: BEN
Outline: as §1

[17] = tested on: HCC-827
Outline: as §1

[18] = tested on: NCI-H1437
Outline: as §1

[19] = tested on: HCC-44
Outline: as §1

[20] = tested on: NCI-H1975
Outline: as §1

O=c1cc(N2CCOCC2)oc2c(-c3cccc4c3sc3ccccc34)cccc12 + C[C@]1(O)C[C@@H](c2nc(-c3ccc4ccc(-c5ccccc5)nc4c3)c3c(N)nccn32)C1 [Linsitinib] (partner 1 µM)
relative viability ([1]; first compound 0.01 µM): 1.04
relative viability ([1]; first compound 0.03162 µM): 1.12
relative viability ([1]; first compound 0.1 µM): 0.899
relative viability ([1]; first compound 0.3162 µM): 0.899
relative viability ([1]; first compound 1 µM): 0.985
relative viability ([2]; first compound 0.01 µM): 0.967
relative viability ([2]; first compound 0.03162 µM): 0.865
relative viability ([2]; first compound 0.1 µM): 0.943
relative viability ([2]; first compound 0.3162 µM): 0.916
relative viability ([2]; first compound 1 µM): 0.913
relative viability ([3]; first compound 0.01 µM): 1
relative viability ([3]; first compound 0.03162 µM): 0.988
relative viability ([3]; first compound 0.1 µM): 1.14
relative viability ([3]; first compound 0.3162 µM): 0.95
relative viability ([3]; first compound 1 µM): 1.09
relative viability ([4]; first compound 0.01 µM): 0.794
relative viability ([4]; first compound 0.03162 µM): 1.03
relative viability ([4]; first compound 0.3162 µM): 1.14
relative viability ([4]; first compound 1 µM): 0.679
relative viability ([5]; first compound 0.01 µM): 1.02
relative viability ([5]; first compound 0.03162 µM): 1.24
relative viability ([5]; first compound 0.1 µM): 1.22
relative viability ([5]; first compound 0.3162 µM): 1.09
relative viability ([5]; first compound 1 µM): 0.954
relative viability ([6]; first compound 0.01 µM): 0.735
relative viability ([6]; first compound 0.03162 µM): 0.803
relative viability ([6]; first compound 0.1 µM): 0.972
relative viability ([6]; first compound 0.3162 µM): 0.776
relative viability ([6]; first compound 1 µM): 0.636
relative viability ([7]; first compound 0.01 µM): 0.983
relative viability ([7]; first compound 0.03162 µM): 0.914
relative viability ([7]; first compound 0.1 µM): 0.933
relative viability ([7]; first compound 0.3162 µM): 0.889
relative viability ([7]; first compound 1 µM): 0.821
relative viability ([8]; first compound 0.01 µM): 0.858
relative viability ([8]; first compound 0.03162 µM): 0.792
relative viability ([8]; first compound 0.1 µM): 0.851
relative viability ([8]; first compound 0.3162 µM): 0.773
relative viability ([8]; first compound 1 µM): 0.895
relative viability ([9]; first compound 0.01 µM): 0.857
relative viability ([9]; first compound 0.03162 µM): 0.937
relative viability ([9]; first compound 0.1 µM): 0.938
relative viability ([9]; first compound 0.3162 µM): 1.03
relative viability ([9]; first compound 1 µM): 0.936
relative viability ([10]; first compound 0.01 µM): 0.217
relative viability ([10]; first compound 0.03162 µM): 0.203
relative viability ([10]; first compound 0.3162 µM): 0.198
relative viability ([10]; first compound 1 µM): 0.18
relative viability ([11]; first compound 0.01 µM): 0.524
relative viability ([11]; first compound 0.03162 µM): 0.628
relative viability ([11]; first compound 0.1 µM): 0.589
relative viability ([11]; first compound 0.3162 µM): 0.518
relative viability ([11]; first compound 1 µM): 0.627
relative viability ([12]; first compound 0.01 µM): 0.955
relative viability ([12]; first compound 0.03162 µM): 0.832
relative viability ([12]; first compound 0.1 µM): 0.746
relative viability ([12]; first compound 0.3162 µM): 0.813
relative viability ([12]; first compound 1 µM): 0.653
relative viability ([13]; first compound 0.01 µM): 1.04
relative viability ([13]; first compound 0.03162 µM): 1.03
relative viability ([13]; first compound 0.1 µM): 1.03
relative viability ([13]; first compound 0.3162 µM): 1.01
relative viability ([13]; first compound 1 µM): 1.05
relative viability ([14]; first compound 0.01 µM): 0.987
relative viability ([14]; first compound 0.03162 µM): 1.17
relative viability ([14]; first compound 0.3162 µM): 1.31
relative viability ([14]; first compound 1 µM): 1.1
relative viability ([15]; first compound 0.01 µM): 0.989
relative viability ([15]; first compound 0.03162 µM): 0.907
relative viability ([15]; first compound 0.1 µM): 1.19
relative viability ([15]; first compound 0.3162 µM): 0.956
relative viability ([15]; first compound 1 µM): 1.01
relative viability ([16]; first compound 0.01 µM): 0.887
relative viability ([16]; first compound 0.03162 µM): 0.916
relative viability ([16]; first compound 0.1 µM): 0.978
relative viability ([16]; first compound 0.3162 µM): 1.02
relative viability ([16]; first compound 1 µM): 0.948
relative viability ([17]; first compound 0.01 µM): 0.906
relative viability ([17]; first compound 0.03162 µM): 0.977
relative viability ([17]; first compound 0.1 µM): 0.941
relative viability ([17]; first compound 0.3162 µM): 0.941
relative viability ([17]; first compound 1 µM): 0.891
relative viability ([18]; first compound 0.01 µM): 1.01
relative viability ([18]; first compound 0.03162 µM): 1.11
relative viability ([18]; first compound 0.1 µM): 1.09
relative viability ([18]; first compound 0.3162 µM): 1
relative viability ([18]; first compound 1 µM): 0.979
relative viability ([19]; first compound 0.01 µM): 0.748
relative viability ([19]; first compound 0.03162 µM): 0.661
relative viability ([19]; first compound 0.1 µM): 0.655
relative viability ([19]; first compound 0.3162 µM): 0.684
relative viability ([19]; first compound 1 µM): 0.584
relative viability ([20]; first compound 0.01 µM): 0.833
relative viability ([20]; first compound 0.03162 µM): 0.922
relative viability ([20]; first compound 0.1 µM): 0.94
relative viability ([20]; first compound 0.3162 µM): 0.929
relative viability ([20]; first compound 1 µM): 1

CCN(CC)CCCCNc1ncc2cc(-c3cc(OC)cc(OC)c3)c(NC(=O)NC(C)(C)C)nc2n1 + C[C@]1(O)C[C@@H](c2nc(-c3ccc4ccc(-c5ccccc5)nc4c3)c3c(N)nccn32)C1 [Linsitinib] (partner 1 µM)
relative viability ([1]; first compound 0.01 µM): 0.912
relative viability ([1]; first compound 0.03162 µM): 0.979
relative viability ([1]; first compound 0.1 µM): 1.21
relative viability ([1]; first compound 0.3162 µM): 1.02
relative viability ([1]; first compound 1 µM): 0.883
relative viability ([2]; first compound 0.01 µM): 0.999
relative viability ([2]; first compound 0.03162 µM): 0.982
relative viability ([2]; first compound 0.1 µM): 0.954
relative viability ([2]; first compound 0.3162 µM): 1.03
relative viability ([2]; first compound 1 µM): 0.993
relative viability ([3]; first compound 0.01 µM): 1.02
relative viability ([3]; first compound 0.03162 µM): 1.04
relative viability ([3]; first compound 0.1 µM): 0.986
relative viability ([3]; first compound 0.3162 µM): 1.06
relative viability ([3]; first compound 1 µM): 0.892
relative viability ([4]; first compound 0.01 µM): 0.792
relative viability ([4]; first compound 0.03162 µM): 0.929
relative viability ([4]; first compound 0.1 µM): 0.97
relative viability ([4]; first compound 0.3162 µM): 1.1
relative viability ([4]; first compound 1 µM): 0.789
relative viability ([5]; first compound 0.01 µM): 1.31
relative viability ([5]; first compound 0.03162 µM): 1.09
relative viability ([5]; first compound 0.1 µM): 1.75
relative viability ([5]; first compound 0.3162 µM): 1.52
relative viability ([5]; first compound 1 µM): 1
relative viability ([6]; first compound 0.01 µM): 1.04
relative viability ([6]; first compound 0.03162 µM): 0.674
relative viability ([6]; first compound 0.1 µM): 0.997
relative viability ([6]; first compound 0.3162 µM): 0.944
relative viability ([6]; first compound 1 µM): 0.726
relative viability ([7]; first compound 0.01 µM): 0.977
relative viability ([7]; first compound 0.03162 µM): 0.949
relative viability ([7]; first compound 0.1 µM): 1.07
relative viability ([7]; first compound 0.3162 µM): 0.918
relative viability ([7]; first compound 1 µM): 0.887
relative viability ([8]; first compound 0.01 µM): 1.1
relative viability ([8]; first compound 0.03162 µM): 0.794
relative viability ([8]; first compound 0.1 µM): 1.02
relative viability ([8]; first compound 0.3162 µM): 0.963
relative viability ([8]; first compound 1 µM): 0.868
relative viability ([9]; first compound 0.01 µM): 0.882
relative viability ([9]; first compound 0.03162 µM): 0.938
relative viability ([9]; first compound 0.1 µM): 0.968
relative viability ([9]; first compound 0.3162 µM): 0.996
relative viability ([9]; first compound 1 µM): 0.93
relative viability ([10]; first compound 0.03162 µM): 0.176
relative viability ([10]; first compound 0.1 µM): 0.23
relative viability ([10]; first compound 0.3162 µM): 0.199
relative viability ([10]; first compound 1 µM): 0.216
relative viability ([11]; first compound 0.01 µM): 0.557
relative viability ([11]; first compound 0.03162 µM): 0.565
relative viability ([11]; first compound 0.1 µM): 0.565
relative viability ([11]; first compound 0.3162 µM): 0.583
relative viability ([11]; first compound 1 µM): 0.517
relative viability ([12]; first compound 0.01 µM): 0.811
relative viability ([12]; first compound 0.03162 µM): 0.785
relative viability ([12]; first compound 0.1 µM): 0.892
relative viability ([12]; first compound 0.3162 µM): 0.734
relative viability ([12]; first compound 1 µM): 0.789
relative viability ([13]; first compound 0.01 µM): 1.07
relative viability ([13]; first compound 0.03162 µM): 1.02
relative viability ([13]; first compound 0.1 µM): 1.07
relative viability ([13]; first compound 0.3162 µM): 1.12
relative viability ([13]; first compound 1 µM): 1.02
relative viability ([14]; first compound 0.01 µM): 1.26
relative viability ([14]; first compound 0.1 µM): 1.1
relative viability ([14]; first compound 0.3162 µM): 1.32
relative viability ([14]; first compound 1 µM): 1.17
relative viability ([15]; first compound 0.01 µM): 1.11
relative viability ([15]; first compound 0.03162 µM): 1.1
relative viability ([15]; first compound 0.1 µM): 0.93
relative viability ([15]; first compound 0.3162 µM): 1.09
relative viability ([15]; first compound 1 µM): 0.883
relative viability ([16]; first compound 0.01 µM): 1.11
relative viability ([16]; first compound 0.03162 µM): 0.838
relative viability ([16]; first compound 0.1 µM): 0.894
relative viability ([16]; first compound 0.3162 µM): 1.07
relative viability ([16]; first compound 1 µM): 0.691
relative viability ([17]; first compound 0.01 µM): 0.933
relative viability ([17]; first compound 0.03162 µM): 0.987
relative viability ([17]; first compound 0.1 µM): 1.01
relative viability ([17]; first compound 0.3162 µM): 0.982
relative viability ([17]; first compound 1 µM): 0.961
relative viability ([18]; first compound 0.01 µM): 1.27
relative viability ([18]; first compound 0.03162 µM): 1.05
relative viability ([18]; first compound 0.1 µM): 1.13
relative viability ([18]; first compound 0.3162 µM): 1.22
relative viability ([18]; first compound 1 µM): 0.817
relative viability ([19]; first compound 0.01 µM): 0.752
relative viability ([19]; first compound 0.03162 µM): 0.709
relative viability ([19]; first compound 0.1 µM): 0.749
relative viability ([19]; first compound 0.3162 µM): 0.684
relative viability ([19]; first compound 1 µM): 0.614
relative viability ([20]; first compound 0.01 µM): 0.976
relative viability ([20]; first compound 0.03162 µM): 0.949
relative viability ([20]; first compound 0.1 µM): 1.11
relative viability ([20]; first compound 0.3162 µM): 1.01
relative viability ([20]; first compound 1 µM): 0.856
